The values that follow come from patent publication US20220183937A1, “METHOD FOR IMPROVING THE PERFORMANCE OF A FRAGRANCE OR A FRAGRANCE MIXTURE” (SYMRISE AG, priority 2019, published 2022).

A short description of data set [1]: Boiling point of fragrance raw materials.
Data set [2] in a line: LogP of fragrance raw materials.
Where [3] appears, read: Example 2, fragrances for thermo boost performance, head range 230.1 a 300.0.
The mark [4] stands for this setting: Example 2, fragrances for thermo boost performance, head range 0.00 a 3.00.
Where [5] appears, read: Example 1, fragrances for long lasting performance, head range 1.00 a 230.0.
Where [6] appears, read: Example 1, fragrances for long lasting performance, head range 1.00 a 3.00.

As for `CCCC1CCCC(=O)O1` (centres unmarked) [OCTALACTONE DELTA], the “Boiling Point” value in data set [1] (setting [3]) was determined as 250 °C.

As usually defined, the logP is a log measure of how a compound divides between an organic and an aqueous phase. Molecule `CCOc1cc(COC)ccc1O` [METHYL DIANTILIS] displayed a logP in data set [2] (setting [4]) of 1.61. Also, the “Boiling Point” value in data set [1] (setting [3]) turned out to be 282.4 °C.

The molecule `CCCCCC(=O)OC` [METHYL CAPROATE] returned a logP in data set [2] of 2.34. Also, in data set [1] (setting [5]), the “Boiling Point” value was 148.4 °C.

For `CC(=O)OC1CCCCC1` [CYCLOHEXYL ACETATE], the logP in data set [2] came to 2.64. In addition, the “Boiling Point” value in data set [1] (setting [5]) worked out at 179.4 °C.

`COC(=O)Cc1ccccc1` [METHYL PHENYLACETATE]: the lipophilicity (logP) in the data set “physchem” was found to be 2.08. Also, the “Boiling Point” value in data set [1] (setting [5]) was 215.6 °C.

As for `COC(OC)C(C)c1ccccc1` (centres unmarked) [HYDRATROPIC ALDEHYDE DIMETH.ACET], in data set [1] (setting [5]), the “Boiling Point” value worked out at 227.2 °C.

For the molecule `CC(=O)CCC=C(C)C` [METIL-6-HEPTEN-5-ONA-2 SUPRA, METIL-6-HEPTEN-5-ONA-2], in data set [1] (setting [5]), the “Boiling Point” value is 164.4 °C.

With `CC(=O)c1ccccc1` [ACETOPHENONE], the “Boiling Point” value in data set [1] (setting [5]) came out at 189.8 °C.

Turning to `CCCCC1CCC(=O)O1` (centres unmarked) [OCTALACTONE GAMMA], the “Boiling Point” value in data set [1] (setting [3]) is 248.4 °C.

In data set [2] (setting [4]), `CC/C=C/CC/C=C/CO` [NONADIENOL-2,6] displayed a logP of 2.87. Besides, the “Boiling Point” value in data set [1] (setting [3]) is 231.6 °C.

`O=Cc1ccc2c(c1)OCO2` [HELIOTROPIN] displayed a logP in data set [2] (setting [4]) of 1.77. In addition, in data set [1] (setting [3]), the “Boiling Point” value stood at 257 °C.

As to `CC1=CC(C)C(C=O)CC1` (centres unmarked) [VERTOCITRAL], the “Boiling Point” value in data set [1] (setting [5]) is 200.5 °C.

Consider `CC(=O)OCC(C)C` [ISOBUTYL ACETATE], for which the “Boiling Point” value in data set [1] (setting [5]) was determined as 111.7 °C.

Turning to `CC1=CC(C)C(C=O)CC1` (centres unmarked) [LIGUSTRAL], in data set [1] (setting [5]), the “Boiling Point” value worked out at 200.5 °C.

In the case of `CCCCC1CCCC(=O)O1` (centres unmarked) [NONALACTONE DELTA], in data set [2] (setting [4]), the logP stood at 2.08. Moreover, the “Boiling Point” value in data set [1] (setting [3]) was 267 °C.

With `CCCCCCOC(C)=O` [HEXYL ACETATE], the “Boiling Point” value in data set [1] (setting [5]) was determined as 170.1 °C.

Take `CC(=O)c1nccs1` [ACETYL THIAZOLE-2]: in data set [1] (setting [5]), the “Boiling Point” value amounted to 209 °C.

On to `Cc1ccc(O)cc1` [CRESOL PARA], for which, in data set [2] (setting [6]), the lipophilicity (logP) came to 2.06. Further, the “Boiling Point” value in data set [1] (setting [5]) came out at 190.8 °C.

In data set [2] (setting [4]), `CCCCCC1CCCC(=O)O1` (centres unmarked) [DECALACTONE DELTA] gave a logP of 2.57. Moreover, the “Boiling Point” value in data set [1] (setting [3]) amounted to 283.2 °C.

In “physchem”, `CCOC(=O)Cc1ccccc1` [ETHYL PHENYL ACETATE] came in with a logP of 2.57. For the same molecule, the “Boiling Point” value in data set [1] (setting [3]) came out at 234.3 °C.

As for `CCCCOC(C)=O` [BUTYL ACETATE], the logP in data set [2] was 1.85. In addition, in data set [1] (setting [5]), the “Boiling Point” value came to 125.8 °C.

`O=c1ccc2ccccc2o1` [COUMARIN]: in data set [1] (setting [3]), the “Boiling Point” value was determined as 290.7 °C.

As for `COc1cc(C)ccc1O` [METHYL GUAIACOL-4], the “Boiling Point” value in data set [1] (setting [3]) worked out at 230.4 °C.

For the molecule `CC12CCC(C1)C(C)(C)C2O` (centres unmarked) [FENCHOL], the “Boiling Point” value in data set [1] (setting [5]) amounted to 210 °C.

Take `COc1ccc(C=O)cc1` [ANISIC ALDEHYDE PURE, ANISIC ALDEHYDE]: in data set [1] (setting [5]), the “Boiling Point” value worked out at 221.6 °C.

In the case of `CCCCCC(=O)CC` [OCTANONE-3], in data set [1] (setting [5]), the “Boiling Point” value is 163.6 °C.

Molecule ISOOCTANONE had a lipophilicity (logP) in data set [2] (setting [6]) of 2.15. Moreover, the “Boiling Point” value in data set [1] (setting [5]) came out at 150.5 °C.

Take `CCCC(C)C(=O)OCC` (centres unmarked) [MANZANATE]: the logP in data set [2] (setting [6]) turned out to be 2.76. Besides, the “Boiling Point” value in data set [1] (setting [5]) is 157.1 °C.

As for `CCCC1CCC(=O)O1` (centres unmarked) [HEPTALACTONE GAMMA], in data set [2] (setting [4]), the log partition coefficient (logP) turned out to be 1.09. In data set [1] (setting [3]), the “Boiling Point” value worked out at 230.3 °C.

Consider `CCOC(=O)COc1ccccc1` [ETHYL PHENOXY ACETATE], for which the “Boiling Point” value in data set [1] (setting [3]) stood at 252.8 °C.

With `COc1ccc(C(C)=O)cc1` [ACETANISOLE CRYST., ACETANISOLE], the “Boiling Point” value in data set [1] (setting [5]) turned out to be 229.5 °C.

The molecule `CC/C=C\CCOC(=O)OC` [LEAFOVERT®] had a logP in data set [2] (setting [6]) of 2.47. In addition, in data set [1] (setting [5]), the “Boiling Point” value came to 213 °C.

Take `COC(Cc1ccccc1)OC`: the logP in data set [2] was 1.93. In addition, the “Boiling Point” value in data set [1] (setting [5]) came out at 219.8 °C.

Take `CCCCCC#CC(=O)OC` [METHYL HEPTIN CARBONATE]: the lipophilicity (logP) in data set [2] (setting [6]) worked out at 2.6. Further, the “Boiling Point” value in data set [1] (setting [5]) came to 205.3 °C.

In data set [2] (setting [4]), `CCCCCCC1CCC(=O)O1` (centres unmarked) [DECALACTONE GAMMA] had a logP of 2.57. The “Boiling Point” value in data set [1] (setting [3]) was 281.7 °C.

Consider `CCCCCCCC=O` [ALDEHYDE C 8], for which the logP in data set [2] (setting [6]) was 2.78. The “Boiling Point” value in data set [1] (setting [5]) was 176 °C.

Turning to `OCCc1ccccc1` [PHENYLETHYL ALCOHOL BA FREE, PHENYLETHYL ALCOHOL], the logP in data set [2] came out at 1.57. Also, in data set [1] (setting [5]), the “Boiling Point” value amounted to 224.9 °C.

As to MENTHONE L/ISOMENTHONE D, the log partition coefficient (logP) in data set [2] (setting [6]) turned out to be 2.87. Besides, the “Boiling Point” value in data set [1] (setting [5]) amounted to 213 °C.
